Assay results as given in the NIST ThermoML archive (doi:10.1016/j.jct.2006.09.008).

Assay: molar heat capacity at constant pressure; mn = molality of the nth substance listed, in mol/kg
Conditions: 350 kPa, Liquid

O=[N+]([O-])[O-].O=[N+]([O-])[O-].[Mn+2] [manganese nitrate] + O
molar heat capacity at constant pressure [J/K/mol]
Conditions | m1 = 0.0132 | m1 = 0.0248 | m1 = 0.0503 | m1 = 0.0825 | m1 = 0.0836 | m1 = 0.1542 | m1 = 0.3085 | m1 = 0.5132
278.15 K | 75.63 | 75.56 | 75.42 | 75.25 | 75.25 | 74.9 | 74.27 | 73.62
283.15 K | 75.47 | 75.41 | 75.28 | 75.14 | 75.13 | 74.83 | 74.27 | 73.71
288.15 K | 75.36 | 75.31 | 75.19 | 75.07 | 75.06 | 74.79 | 74.3 | 73.8
293.15 K | 75.29 | 75.24 | 75.14 | 75.02 | 75.02 | 74.78 | 74.34 | 73.88
298.15 K | 75.24 | 75.2 | 75.1 | 75 | 75 | 74.78 | 74.38 | 73.96
303.15 K | 75.21 | 75.17 | 75.08 | 74.99 | 74.99 | 74.78 | 74.42 | 74.04
308.15 K | 75.2 | 75.16 | 75.08 | 74.99 | 74.99 | 74.8 | 74.46 | 74.11
313.15 K | 75.2 | 75.16 | 75.09 | 75.01 | 75 | 74.83 | 74.51 | 74.18
318.15 K | 75.21 | 75.18 | 75.11 | 75.03 | 75.03 | 74.86 | 74.56 | 74.25
323.15 K | 75.24 | 75.2 | 75.14 | 75.06 | 75.06 | 74.89 | 74.61 | 74.32
328.15 K | 75.27 | 75.24 | 75.17 | 75.1 | 75.09 | 74.94 | 74.66 | 74.39
333.15 K | 75.31 | 75.28 | 75.21 | 75.14 | 75.14 | 74.99 | 74.72 | 74.45
338.15 K | 75.36 | 75.33 | 75.26 | 75.19 | 75.19 | 75.04 | 74.78 | 74.52
343.15 K | 75.42 | 75.39 | 75.32 | 75.25 | 75.25 | 75.1 | 74.84 | 74.59
348.15 K | 75.48 | 75.45 | 75.38 | 75.31 | 75.31 | 75.16 | 74.91 | 74.66
353.15 K | 75.55 | 75.52 | 75.46 | 75.38 | 75.38 | 75.23 | 74.98 | 74.73
358.15 K | 75.63 | 75.6 | 75.53 | 75.46 | 75.46 | 75.31 | 75.06 | 74.81
363.15 K | 75.72 | 75.68 | 75.62 | 75.54 | 75.54 | 75.39 | 75.14 | 74.89
368.15 K | 75.81 | 75.78 | 75.71 | 75.63 | 75.63 | 75.48 | 75.22 | 74.97
373.15 K | 75.91 | 75.88 | 75.81 | 75.73 | 75.73 | 75.57 | 75.31 | 75.06
378.15 K | 76.02 | 75.99 | 75.91 | 75.83 | 75.83 | 75.67 | 75.41 | 75.15
383.15 K | 76.14 | 76.1 | 76.03 | 75.94 | 75.94 | 75.78 | 75.51 | 75.25
388.15 K | 76.27 | 76.23 | 76.15 | 76.07 | 76.07 | 75.89 | 75.62 | 75.36
393.15 K | 76.41 | 76.37 | 76.29 | 76.2 | 76.2 | 76.02 | 75.74 | 75.47
